The text below walks through data of ChEMBL document CHEMBL5537212, “Benzodioxane Carboxamide Derivatives As Novel Monoamine Oxidase B Inhibitors with Antineuroinflammatory Activity” (ACS Med Chem Lett, 2024).

Assay [1] concerns the target T1, Amine oxidase [flavin-containing] A (Homo sapiens, UniProt P21397).
T1 sequence (P21397 whole entry): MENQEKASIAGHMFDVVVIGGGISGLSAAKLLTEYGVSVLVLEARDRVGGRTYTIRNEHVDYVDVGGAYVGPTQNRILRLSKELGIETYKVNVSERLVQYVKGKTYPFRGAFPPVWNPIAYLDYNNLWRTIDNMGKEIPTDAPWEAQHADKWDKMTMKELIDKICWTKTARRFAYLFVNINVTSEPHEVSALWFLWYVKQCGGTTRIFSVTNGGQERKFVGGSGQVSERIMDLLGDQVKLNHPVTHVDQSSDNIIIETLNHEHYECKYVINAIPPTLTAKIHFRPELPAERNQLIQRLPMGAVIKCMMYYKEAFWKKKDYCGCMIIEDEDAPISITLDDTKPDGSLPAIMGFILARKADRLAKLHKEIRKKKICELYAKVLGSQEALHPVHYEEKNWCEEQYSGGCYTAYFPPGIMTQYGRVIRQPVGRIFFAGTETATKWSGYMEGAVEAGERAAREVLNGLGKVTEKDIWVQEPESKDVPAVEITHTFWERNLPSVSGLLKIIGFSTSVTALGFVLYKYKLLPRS
Description: Inhibition of recombinant human MAO-A incubated for 15 mins by Amplex Red reagent and horseradish peroxidase based fluorescence microplate reader analysis

Assay [2] has as its target T2, Amine oxidase [flavin-containing] B (Homo sapiens, UniProt P27338).
T2 sequence (P27338 whole entry): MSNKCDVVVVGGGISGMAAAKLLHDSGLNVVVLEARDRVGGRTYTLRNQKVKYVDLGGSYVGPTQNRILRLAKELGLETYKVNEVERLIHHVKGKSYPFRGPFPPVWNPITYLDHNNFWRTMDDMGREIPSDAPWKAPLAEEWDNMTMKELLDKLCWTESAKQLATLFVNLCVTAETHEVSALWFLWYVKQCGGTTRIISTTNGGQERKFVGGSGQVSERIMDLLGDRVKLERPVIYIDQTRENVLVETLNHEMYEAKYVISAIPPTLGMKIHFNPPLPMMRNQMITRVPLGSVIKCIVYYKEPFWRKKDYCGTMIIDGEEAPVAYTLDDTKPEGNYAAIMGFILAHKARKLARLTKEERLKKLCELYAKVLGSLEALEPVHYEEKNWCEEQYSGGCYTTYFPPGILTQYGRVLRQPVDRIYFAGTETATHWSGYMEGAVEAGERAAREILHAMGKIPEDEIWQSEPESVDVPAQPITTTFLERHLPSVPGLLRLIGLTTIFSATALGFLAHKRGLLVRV
Kind of assay: Inhibition of recombinant human MAO-B using benzylamine as substrate at 1 uM incubated for 20 mins by fluorescence microplate reader analysis relative to control. The following applies: read-out: INH.

The target in assay [3] is T1, Amine oxidase [flavin-containing] A. Kind of assay: Inhibition of recombinant human MAO-A at 0.1 uM incubated for 15 mins by Amplex Red reagent and horseradish peroxidase based fluorescence microplate reader analysis relative to control. The following applies: 0.25 h.

What is called IC50 is the concentration that inhibits the measured activity by half. Compound `O=C(Nc1ccccc1)c1ccc2c(c1)OCO2` had an IC50 in assay [1] greater than 40 µM. In addition, in assay [2], the inhibition at 1 µM is less than 5%.
The matching figures for `COc1ccc(NC(=O)c2ccc3c(c2)OCCO3)cc1OC`: greater than 40 µM and less than 5%.
For `COc1cccc(NC(=O)c2ccc3c(c2)OCCO3)c1` the same measures were greater than 40 µM and 19.7%.
In assay [1], `O=C(NCc1ccccc1)c1ccc2c(c1)OCCO2` displayed a concentration for half-maximal inhibition (IC50) greater than 40 µM. For the same compound, in assay [2], the inhibition at 1 µM was less than 5%.
For `O=C(Nc1cccc(Cl)c1)c1ccccc1`, the half-maximal inhibitory concentration (IC50) in assay [1] was greater than 40 µM. For the same compound, the inhibition at 1 µM in assay [2] is less than 5%.
In the case of `O=C(Nc1ccc2c(c1)OCCO2)c1ccc(Cl)c(Cl)c1`, the IC50 in assay [1] was greater than 40 µM. Also, the inhibition at 1 µM in assay [2] came to 30.8%.
Turning to `O=C(Nc1ccccc1Cl)c1ccc2c(c1)OCCO2`, the IC50 in assay [1] was greater than 40 µM. Besides, in assay [2], the inhibition at 1 µM is less than 5%.
For `O=C(Nc1cccc(Cl)c1Cl)c1ccc2c(c1)OCCO2` the same measures were greater than 40 µM and 53%.
The matching figures for `O=C(Nc1ccc2c(c1)OCCO2)c1ccc2c(c1)OCCO2`: greater than 40 µM and 36.1%.
With `COc1ccc(NC(=O)c2ccc3c(c2)OCCO3)cc1Cl`, the IC50 in assay [1] was greater than 40 µM. The inhibition at 1 µM in assay [2] was found to be 27.4%.
For `COc1ccc(NC(=O)c2ccc3c(c2)OCCO3)cc1` the same measures were greater than 40 µM and less than 5%.
For `O=C(Nc1ccc2[nH]ncc2c1)c1ccc2c(c1)OCCO2` the same measures were greater than 40 µM and 13.8%.
In assay [1], `O=C(Nc1ccccc1F)c1ccc2c(c1)OCCO2` displayed a half-inhibitory concentration (IC50) greater than 40 µM. Besides, the inhibition at 1 µM in assay [2] was 19.1%.
In assay [1], `O=C(Nc1ccc(Br)cc1)c1ccc2c(c1)OCCO2` registered a half-inhibitory concentration (IC50) greater than 40 µM.
In assay [1], `O=C(Nc1ccc(Cl)c(Cl)c1)c1ccccc1` yielded an IC50 greater than 40 µM. In assay [2], the inhibition at 1 µM is 40.2%.
Turning to `C#CCN(C)CCCOc1ccc(Cl)cc1Cl` [CLORGILINE], the inhibition at 0.1 µM in assay [3] stood at 79.9%.
With `O=C(Nc1ccccc1)c1ccccc1` [N-PHENYLBENZAMIDE], the IC50 in assay [1] was greater than 40 µM. The inhibition at 1 µM in assay [2] is less than 5%.
